Earlier results, collected in patent US20220054615A1 (priority 2018, published 2022).

Tests used:
[1] = system: mouse spleen
[2] = system: IgG2a; details: mouse, in vivo
[3] = system: human peripheral blood mononuclear cells (PBMCs)

CCCCCCCCCCCC(=O)CC(=O)N[C@H](COCC[C@@H](CCCCCCC)OC(=O)CCCCCCCCCCC)COP(=O)([O-])OCCNC(=O)NCCOP(=O)([O-])OC[C@@H](COCC[C@@H](CCCCCCC)OC(=O)CCCCCCCCCCC)NC(=O)CC(=O)CCCCCCCCCCC.[Na+].[Na+] [E6020, dodecanoic acid, (1R,6R, 22R, 27R)-1,27-dihexyl-9,19-dihydroxy-9,19-dioxido-14-oxo-6,22-bis [(1,3-di oxotetradecyl)amino]-4,8,10, 18, 20, 24-hexaoxa-13,15-di aza-9,19-dephosphaheptacosane-1,27-diyl ester, disodium salt]
enhance: GM-CSF, IL-1, IL-6 and TNF-α [1] | IgG2a [2] | GM-CSF, IL-1, IL-6 and TNF-α [3]
